pIC50: −log10 of the molar value.
Key:
[1] = target: Histone deacetylase 4 (Homo sapiens, UniProt P56524); assay: Inhibition of human recombinant N-terminal GST-tagged/C-terminal His-tagged HDAC4 expressed in baculovirus infected insect cells preincubated for 2 hrs followed by Fluor-de-Lys substrate addition measured after 30 mins by fluorescence assay; format: cell-based
[2] = target: T1, Histone deacetylase 2 (Homo sapiens, UniProt Q92769); assay: Inhibition of human full length C-terminal FLAG-tagged HDAC2 expressed in baculovirus infected Sf9 insect cells preincubated for 2 hrs followed by Fluor-de-Lys substrate addition measured after 30 mins by fluorescence assay; format: cell-based
[3] = target: T2, Histone deacetylase 7 (Homo sapiens, UniProt Q8WUI4); assay: Inhibition of human recombinant N-terminal GST-tagged HDAC7 expressed in baculovirus infected insect cells preincubated for 2 hrs followed by Fluor-de-Lys substrate addition measured after 30 mins by fluorescence assay; format: cell-based
T2 sequence (Q8WUI4 whole entry): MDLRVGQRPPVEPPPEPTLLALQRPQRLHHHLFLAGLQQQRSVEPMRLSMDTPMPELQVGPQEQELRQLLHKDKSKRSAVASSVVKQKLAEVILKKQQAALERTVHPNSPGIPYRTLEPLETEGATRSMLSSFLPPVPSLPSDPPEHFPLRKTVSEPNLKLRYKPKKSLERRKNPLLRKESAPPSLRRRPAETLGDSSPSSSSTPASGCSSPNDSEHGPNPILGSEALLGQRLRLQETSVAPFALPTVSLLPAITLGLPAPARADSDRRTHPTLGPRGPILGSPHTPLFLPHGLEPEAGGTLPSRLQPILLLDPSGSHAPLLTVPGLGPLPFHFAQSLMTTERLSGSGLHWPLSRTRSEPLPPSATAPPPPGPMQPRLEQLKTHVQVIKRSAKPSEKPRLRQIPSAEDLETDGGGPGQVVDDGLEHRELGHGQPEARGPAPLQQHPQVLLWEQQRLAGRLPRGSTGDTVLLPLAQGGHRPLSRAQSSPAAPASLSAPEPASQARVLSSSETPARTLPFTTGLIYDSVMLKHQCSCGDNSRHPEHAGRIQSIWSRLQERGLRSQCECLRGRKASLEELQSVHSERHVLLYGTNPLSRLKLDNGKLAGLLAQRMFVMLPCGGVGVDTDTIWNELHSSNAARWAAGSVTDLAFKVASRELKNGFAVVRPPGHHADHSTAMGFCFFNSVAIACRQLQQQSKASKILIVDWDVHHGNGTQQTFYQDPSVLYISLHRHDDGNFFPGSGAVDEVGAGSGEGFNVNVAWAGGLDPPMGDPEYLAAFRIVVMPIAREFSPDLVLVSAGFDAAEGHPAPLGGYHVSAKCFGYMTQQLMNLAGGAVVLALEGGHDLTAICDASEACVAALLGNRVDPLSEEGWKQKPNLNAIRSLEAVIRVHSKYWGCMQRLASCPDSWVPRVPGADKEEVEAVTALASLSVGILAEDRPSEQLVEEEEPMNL

[4] = target: T3, Histone deacetylase 1 (Homo sapiens, UniProt Q13547); assay: Inhibition of human full length C-terminal His/FLAG-tagged HDAC1 expressed in baculovirus infected Sf9 insect cells preincubated for 2 hrs followed by Fluor-de-Lys substrate addition measured after 30 mins by fluorescence assay; format: cell-based
[5] = target: T4, Histone deacetylase 8 (Homo sapiens, UniProt Q9BY41); assay: Inhibition of HDAC8 (unknown origin) preincubated for 2 hrs followed by Fluor-de-Lys substrate addition measured after 30 mins by fluorescence assay
T4 sequence (Q9BY41 whole entry): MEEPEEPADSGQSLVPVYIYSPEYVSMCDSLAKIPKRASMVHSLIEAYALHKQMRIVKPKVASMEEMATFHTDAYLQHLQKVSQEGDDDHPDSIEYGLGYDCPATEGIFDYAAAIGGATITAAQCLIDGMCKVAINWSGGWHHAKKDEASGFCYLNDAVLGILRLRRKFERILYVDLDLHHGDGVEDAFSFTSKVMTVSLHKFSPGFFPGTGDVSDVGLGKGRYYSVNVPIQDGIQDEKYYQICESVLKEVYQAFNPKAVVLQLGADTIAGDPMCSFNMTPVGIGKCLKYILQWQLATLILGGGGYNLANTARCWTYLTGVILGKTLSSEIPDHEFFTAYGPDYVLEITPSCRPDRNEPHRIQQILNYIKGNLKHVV

[6] = target: Histone deacetylase 3/Nuclear receptor corepressor 2 (HDAC3/NCoR2) (Homo sapiens, UniProt O15379); assay: Inhibition of human full length C-terminal His-tagged HDAC3/N-terminal GST-tagged human NCOR2 co-expressed in baculovirus infected Sf9 insect cells preincubated for 2 hrs followed by Fluor-de-Lys substrate addition measured after 30 mins by fluorescence assay; format: cell-based
[7] = target: Histone deacetylase 5 (Homo sapiens, UniProt Q9UQL6); assay: Inhibition of human recombinant C-terminal His-tagged HDAC5 expressed in baculovirus infected insect cells preincubated for 2 hrs followed by Fluor-de-Lys substrate addition measured after 30 mins by fluorescence assay; format: cell-based
[8] = Lipophilicity, log P of compound by LC-MS/MS analysis; format: physicochemical; details: octanol/water
[9] = Drug uptake in baboon hippocampus after 20 mins by LC-MS/MS analysis; format: ADME, tissue-based; details: papio anubis, in vivo
[10] = target: T4, Histone deacetylase 8; assay: Inhibition of full length 6His-tagged HDAC8 (unknown origin) expressed in baculovirus infected Sf9 insect cells incubated for 17 hrs in presence of FAM-labeled acetylated peptide substrate by fluorescence assay
[11] = target: T5, Polyamine deacetylase HDAC10 (Homo sapiens, UniProt Q969S8); assay: Inhibition of C-terminal 6His-tagged HDAC10 (unknown origin) (632 to 669 residues) expressed in baculovirus infected Sf9 insect cells incubated for 17 hrs in presence of FAM-labeled acetylated peptide substrate by fluorescence assay
T5 sequence (Q969S8 whole entry): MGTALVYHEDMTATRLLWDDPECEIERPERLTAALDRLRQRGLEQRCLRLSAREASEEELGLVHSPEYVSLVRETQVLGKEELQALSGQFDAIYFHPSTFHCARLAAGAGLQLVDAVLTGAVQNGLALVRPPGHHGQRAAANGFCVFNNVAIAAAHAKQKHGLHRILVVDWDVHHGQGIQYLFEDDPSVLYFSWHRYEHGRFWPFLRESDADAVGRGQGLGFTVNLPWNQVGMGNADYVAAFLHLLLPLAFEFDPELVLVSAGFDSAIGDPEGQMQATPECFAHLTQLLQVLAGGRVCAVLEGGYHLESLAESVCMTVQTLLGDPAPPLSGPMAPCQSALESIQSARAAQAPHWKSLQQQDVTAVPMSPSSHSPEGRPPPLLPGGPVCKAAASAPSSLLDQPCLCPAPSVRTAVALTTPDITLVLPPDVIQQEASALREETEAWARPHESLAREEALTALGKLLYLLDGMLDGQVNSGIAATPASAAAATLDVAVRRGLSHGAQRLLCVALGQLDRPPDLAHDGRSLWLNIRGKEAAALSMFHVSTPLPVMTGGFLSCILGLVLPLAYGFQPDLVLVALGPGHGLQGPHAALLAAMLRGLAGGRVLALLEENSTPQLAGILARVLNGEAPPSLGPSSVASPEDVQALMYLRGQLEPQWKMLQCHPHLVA

[12] = target: T6, Protein deacetylase HDAC6 (Homo sapiens, UniProt Q9UBN7); assay: Inhibition of full length 6His-tagged HDAC6 (unknown origin) expressed in baculovirus infected Sf9 insect cells incubated for 17 hrs in presence of FAM-labeled acetylated peptide substrate by fluorescence assay
T6 sequence (Q9UBN7 whole entry): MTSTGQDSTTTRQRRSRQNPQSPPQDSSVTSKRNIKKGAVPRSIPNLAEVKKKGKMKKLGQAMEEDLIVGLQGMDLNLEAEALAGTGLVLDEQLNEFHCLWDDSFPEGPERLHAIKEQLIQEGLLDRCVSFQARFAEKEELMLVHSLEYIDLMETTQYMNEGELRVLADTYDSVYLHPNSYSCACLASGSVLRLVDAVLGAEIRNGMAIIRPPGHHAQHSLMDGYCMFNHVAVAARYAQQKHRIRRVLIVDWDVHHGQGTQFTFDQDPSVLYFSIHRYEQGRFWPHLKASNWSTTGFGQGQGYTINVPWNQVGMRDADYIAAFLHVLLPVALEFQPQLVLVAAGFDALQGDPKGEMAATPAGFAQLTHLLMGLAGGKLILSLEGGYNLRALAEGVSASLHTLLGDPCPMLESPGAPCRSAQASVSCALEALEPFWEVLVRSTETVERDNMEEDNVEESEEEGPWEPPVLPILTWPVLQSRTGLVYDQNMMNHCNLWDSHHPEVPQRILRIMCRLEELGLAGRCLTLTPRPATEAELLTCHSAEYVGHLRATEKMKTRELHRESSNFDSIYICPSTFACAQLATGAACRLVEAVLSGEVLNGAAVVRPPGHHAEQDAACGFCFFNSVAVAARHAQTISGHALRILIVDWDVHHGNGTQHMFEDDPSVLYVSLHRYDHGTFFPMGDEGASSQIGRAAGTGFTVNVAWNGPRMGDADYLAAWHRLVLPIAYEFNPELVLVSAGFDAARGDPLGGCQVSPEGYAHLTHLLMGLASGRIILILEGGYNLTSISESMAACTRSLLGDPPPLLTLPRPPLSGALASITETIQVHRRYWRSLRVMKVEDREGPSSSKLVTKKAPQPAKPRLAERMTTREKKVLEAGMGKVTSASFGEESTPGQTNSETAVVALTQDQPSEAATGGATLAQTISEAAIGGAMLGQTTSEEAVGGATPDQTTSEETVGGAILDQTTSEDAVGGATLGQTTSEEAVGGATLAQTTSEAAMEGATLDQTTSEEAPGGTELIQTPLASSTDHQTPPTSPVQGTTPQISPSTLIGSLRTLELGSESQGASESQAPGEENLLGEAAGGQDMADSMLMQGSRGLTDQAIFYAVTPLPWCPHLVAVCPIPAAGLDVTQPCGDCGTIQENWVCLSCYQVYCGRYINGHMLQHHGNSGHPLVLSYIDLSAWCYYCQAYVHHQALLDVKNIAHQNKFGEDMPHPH

[13] = target: T3, Histone deacetylase 1; assay: Inhibition of full length 6His-tagged HDAC1 (unknown origin) expressed in baculovirus infected Sf9 insect cells incubated for 17 hrs in presence of FAM-labeled acetylated peptide substrate by fluorescence assay
[14] = target: T1, Histone deacetylase 2; assay: Inhibition of full length 6His-tagged HDAC2 (unknown origin) expressed in baculovirus infected Sf9 insect cells incubated for 17 hrs in presence of FAM-labeled acetylated peptide substrate by fluorescence assay

T1 sequence (Q92769 whole entry): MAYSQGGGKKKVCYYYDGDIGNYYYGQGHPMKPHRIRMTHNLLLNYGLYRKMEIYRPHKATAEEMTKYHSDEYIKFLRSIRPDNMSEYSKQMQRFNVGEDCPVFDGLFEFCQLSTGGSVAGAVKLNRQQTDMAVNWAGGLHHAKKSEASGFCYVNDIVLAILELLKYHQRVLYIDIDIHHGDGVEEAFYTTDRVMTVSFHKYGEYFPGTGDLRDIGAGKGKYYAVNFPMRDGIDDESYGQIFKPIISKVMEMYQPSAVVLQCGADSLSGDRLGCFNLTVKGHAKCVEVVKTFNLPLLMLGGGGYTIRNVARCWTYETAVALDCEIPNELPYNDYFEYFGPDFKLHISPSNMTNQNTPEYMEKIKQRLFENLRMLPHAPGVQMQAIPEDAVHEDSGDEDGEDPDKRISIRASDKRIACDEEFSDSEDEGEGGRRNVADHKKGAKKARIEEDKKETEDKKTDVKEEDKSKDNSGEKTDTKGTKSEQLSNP
T3 sequence (Q13547 whole entry): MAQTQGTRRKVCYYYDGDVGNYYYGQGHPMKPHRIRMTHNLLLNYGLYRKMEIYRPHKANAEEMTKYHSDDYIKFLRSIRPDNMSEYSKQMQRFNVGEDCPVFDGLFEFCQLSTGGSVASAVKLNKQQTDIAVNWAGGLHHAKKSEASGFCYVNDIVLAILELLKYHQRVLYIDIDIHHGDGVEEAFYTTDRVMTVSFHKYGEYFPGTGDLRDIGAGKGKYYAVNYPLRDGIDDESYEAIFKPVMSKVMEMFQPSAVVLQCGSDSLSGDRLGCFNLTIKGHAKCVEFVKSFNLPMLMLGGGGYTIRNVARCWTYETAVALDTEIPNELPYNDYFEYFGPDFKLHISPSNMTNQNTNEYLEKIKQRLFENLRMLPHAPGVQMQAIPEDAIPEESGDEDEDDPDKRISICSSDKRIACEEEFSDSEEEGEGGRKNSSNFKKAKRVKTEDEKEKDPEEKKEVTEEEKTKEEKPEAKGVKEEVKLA
Histone deacetylase 3/Nuclear receptor corepressor 2 (HDAC3/NCoR2), sequence (O15379 whole entry): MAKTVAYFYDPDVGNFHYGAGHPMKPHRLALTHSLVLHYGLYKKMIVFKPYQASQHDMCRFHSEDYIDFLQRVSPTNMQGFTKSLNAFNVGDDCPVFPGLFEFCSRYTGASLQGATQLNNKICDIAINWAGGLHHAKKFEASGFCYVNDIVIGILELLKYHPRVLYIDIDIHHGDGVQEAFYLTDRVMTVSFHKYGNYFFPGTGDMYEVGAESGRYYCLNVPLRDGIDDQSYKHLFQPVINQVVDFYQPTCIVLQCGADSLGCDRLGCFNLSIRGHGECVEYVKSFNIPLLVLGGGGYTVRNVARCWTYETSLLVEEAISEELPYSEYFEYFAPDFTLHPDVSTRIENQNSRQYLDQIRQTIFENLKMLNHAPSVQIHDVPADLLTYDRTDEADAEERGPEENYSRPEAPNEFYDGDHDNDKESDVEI
Histone deacetylase 3/Nuclear receptor corepressor 2 (HDAC3/NCoR2), sequence (Q9Y618 whole entry, further chain): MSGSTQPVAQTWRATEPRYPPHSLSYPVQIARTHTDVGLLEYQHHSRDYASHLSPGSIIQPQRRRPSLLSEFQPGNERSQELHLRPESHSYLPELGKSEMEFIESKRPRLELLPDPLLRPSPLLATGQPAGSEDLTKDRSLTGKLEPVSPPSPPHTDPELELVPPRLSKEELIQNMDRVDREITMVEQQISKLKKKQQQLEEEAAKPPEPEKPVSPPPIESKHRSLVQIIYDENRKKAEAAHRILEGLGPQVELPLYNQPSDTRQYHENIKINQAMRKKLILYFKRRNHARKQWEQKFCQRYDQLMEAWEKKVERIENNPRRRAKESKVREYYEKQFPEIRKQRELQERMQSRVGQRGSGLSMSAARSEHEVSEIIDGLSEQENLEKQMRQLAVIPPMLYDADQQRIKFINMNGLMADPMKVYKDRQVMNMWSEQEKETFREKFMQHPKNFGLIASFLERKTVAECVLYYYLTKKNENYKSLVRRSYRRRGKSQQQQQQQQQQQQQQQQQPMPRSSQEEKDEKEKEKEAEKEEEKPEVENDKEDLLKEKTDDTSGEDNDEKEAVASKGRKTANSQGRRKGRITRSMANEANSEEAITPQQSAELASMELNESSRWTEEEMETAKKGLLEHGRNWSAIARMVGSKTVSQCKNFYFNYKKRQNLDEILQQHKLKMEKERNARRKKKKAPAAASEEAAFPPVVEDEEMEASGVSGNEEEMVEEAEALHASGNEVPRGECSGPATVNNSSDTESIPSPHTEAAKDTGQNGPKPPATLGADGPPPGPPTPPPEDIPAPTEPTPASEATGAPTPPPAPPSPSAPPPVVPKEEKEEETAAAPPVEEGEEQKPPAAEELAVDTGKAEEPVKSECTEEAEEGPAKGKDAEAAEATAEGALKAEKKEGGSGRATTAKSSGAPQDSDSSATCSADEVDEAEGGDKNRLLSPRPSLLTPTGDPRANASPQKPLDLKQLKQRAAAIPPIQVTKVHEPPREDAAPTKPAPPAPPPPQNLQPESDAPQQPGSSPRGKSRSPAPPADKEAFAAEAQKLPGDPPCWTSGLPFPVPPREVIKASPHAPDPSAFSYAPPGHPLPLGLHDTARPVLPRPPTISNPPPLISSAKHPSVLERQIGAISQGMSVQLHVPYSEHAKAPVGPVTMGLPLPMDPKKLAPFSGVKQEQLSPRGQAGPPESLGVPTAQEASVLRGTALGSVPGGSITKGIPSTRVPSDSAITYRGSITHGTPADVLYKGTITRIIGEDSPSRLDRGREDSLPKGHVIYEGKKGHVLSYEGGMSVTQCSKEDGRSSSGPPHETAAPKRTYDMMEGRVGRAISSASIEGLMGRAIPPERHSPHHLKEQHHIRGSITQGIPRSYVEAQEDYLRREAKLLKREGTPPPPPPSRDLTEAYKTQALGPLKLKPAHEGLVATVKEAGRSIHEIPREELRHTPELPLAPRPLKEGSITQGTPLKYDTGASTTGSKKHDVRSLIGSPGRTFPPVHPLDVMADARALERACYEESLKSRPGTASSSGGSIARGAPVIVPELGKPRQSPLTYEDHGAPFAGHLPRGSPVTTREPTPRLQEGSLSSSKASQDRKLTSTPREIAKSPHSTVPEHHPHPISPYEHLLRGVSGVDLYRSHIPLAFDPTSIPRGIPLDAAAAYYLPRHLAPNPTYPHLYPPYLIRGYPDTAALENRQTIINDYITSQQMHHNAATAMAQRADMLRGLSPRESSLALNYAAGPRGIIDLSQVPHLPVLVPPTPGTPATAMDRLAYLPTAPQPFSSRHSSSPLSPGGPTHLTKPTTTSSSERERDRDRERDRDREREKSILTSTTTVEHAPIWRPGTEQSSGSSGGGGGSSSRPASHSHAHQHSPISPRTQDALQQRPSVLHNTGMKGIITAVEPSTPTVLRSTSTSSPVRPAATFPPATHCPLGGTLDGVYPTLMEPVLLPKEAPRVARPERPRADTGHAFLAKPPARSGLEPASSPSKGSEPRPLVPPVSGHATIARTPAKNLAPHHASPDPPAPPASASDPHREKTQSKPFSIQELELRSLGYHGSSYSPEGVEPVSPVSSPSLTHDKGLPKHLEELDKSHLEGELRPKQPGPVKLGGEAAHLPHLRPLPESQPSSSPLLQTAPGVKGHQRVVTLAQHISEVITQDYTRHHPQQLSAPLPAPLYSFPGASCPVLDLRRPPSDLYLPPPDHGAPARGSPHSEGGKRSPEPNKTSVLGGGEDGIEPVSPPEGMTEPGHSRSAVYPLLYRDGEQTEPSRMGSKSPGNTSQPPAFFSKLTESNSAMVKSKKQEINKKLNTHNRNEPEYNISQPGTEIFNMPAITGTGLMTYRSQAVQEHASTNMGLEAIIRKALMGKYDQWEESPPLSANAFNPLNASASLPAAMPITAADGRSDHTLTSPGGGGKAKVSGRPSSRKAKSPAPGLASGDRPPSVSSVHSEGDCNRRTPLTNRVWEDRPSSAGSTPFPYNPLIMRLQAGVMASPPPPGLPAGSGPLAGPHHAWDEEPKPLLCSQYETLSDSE
Histone deacetylase 4, sequence (P56524 whole entry): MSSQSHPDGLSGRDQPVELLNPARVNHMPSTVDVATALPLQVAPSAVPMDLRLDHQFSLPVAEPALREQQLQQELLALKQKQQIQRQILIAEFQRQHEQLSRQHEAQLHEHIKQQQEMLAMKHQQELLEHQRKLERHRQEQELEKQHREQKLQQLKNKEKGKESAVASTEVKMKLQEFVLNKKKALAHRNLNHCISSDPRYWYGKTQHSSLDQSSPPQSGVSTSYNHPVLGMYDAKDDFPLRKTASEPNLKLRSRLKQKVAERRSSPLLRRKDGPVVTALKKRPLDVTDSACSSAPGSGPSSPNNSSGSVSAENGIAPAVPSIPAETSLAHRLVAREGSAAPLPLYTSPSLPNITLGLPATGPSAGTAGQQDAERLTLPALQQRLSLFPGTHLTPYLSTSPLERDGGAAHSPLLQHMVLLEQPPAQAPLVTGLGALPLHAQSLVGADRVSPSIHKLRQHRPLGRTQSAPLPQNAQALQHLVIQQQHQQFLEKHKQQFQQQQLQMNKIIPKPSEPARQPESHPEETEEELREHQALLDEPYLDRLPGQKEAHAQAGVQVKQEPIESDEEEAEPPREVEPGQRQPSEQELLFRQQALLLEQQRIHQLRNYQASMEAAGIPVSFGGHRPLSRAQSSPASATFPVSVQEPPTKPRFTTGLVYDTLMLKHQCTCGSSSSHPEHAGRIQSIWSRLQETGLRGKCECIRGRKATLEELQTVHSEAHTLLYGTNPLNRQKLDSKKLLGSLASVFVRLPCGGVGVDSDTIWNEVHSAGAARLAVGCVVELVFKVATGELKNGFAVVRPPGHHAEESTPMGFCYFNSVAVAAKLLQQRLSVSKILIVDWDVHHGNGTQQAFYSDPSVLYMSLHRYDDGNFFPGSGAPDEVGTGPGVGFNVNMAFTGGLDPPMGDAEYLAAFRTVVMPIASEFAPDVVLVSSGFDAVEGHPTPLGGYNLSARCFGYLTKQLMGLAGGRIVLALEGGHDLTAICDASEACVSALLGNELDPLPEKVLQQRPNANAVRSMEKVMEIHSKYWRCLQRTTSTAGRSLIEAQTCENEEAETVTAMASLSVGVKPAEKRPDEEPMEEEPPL

Nc1ccccc1NC(=O)CCCCCC(=O)Nc1ccccc1
pIC50 [1]: < 3.74 | pIC50 [2]: 5.80 | pIC50 [3]: < 3.74 | pIC50 [4]: 6.70 | pIC50 [5]: 5.30 | pIC50 [6]: 7.16 | pIC50 [7]: < 3.74

COc1ccc(Cn2ccc3ccc(C(=O)NO)cc32)cc1
logP [8]: 2.61 | Drug uptake [9]: 30%

Nc1ccccc1NC(=O)CCCCCCC(=O)Nc1cccc(-c2cn(-c3ccccc3)nn2)c1
pIC50 [10]: < 4.52 | pIC50 [11]: < 4.52 | pIC50 [12]: < 4.52 | pIC50 [13]: < 4.52 | pIC50 [14]: < 4.52
